Source: patent US4006251A, “Bactericidal and fungicidal composition containing thiocarbanyl sulfenamides” (The B. F. Goodrich Company, priority 1973, dated 1977)
≈ marks a conversion by molar mass, not a printed value. Like-named read-outs stand apart in the source and are kept apart here.

Columns and labels:
[1] = test system: various infectious organisms; assay: Activity against organisms, overall (Agar Screening Test and/or Penicillin Button Assay Test); type: cell-based; conditions: organisms (a) to (d)
Excerpt: A. Agar Screening Test for Activity.
B. Penicillin Button Assay Test.

[2] = Storage stability test, purity by titration before and after aging; type: physicochemical; conditions: for Percent Purity, after aging: air oven, closed bottles
Description: (§1) D. Storage Stability Tests.
Thiocarbamylsulfenamide compounds were tested for their stability upon storage at room temperature and after mild thermal aging. The principle test employed consisted of measuring the purity of a sample before and after aging. This was done by titrating a sample solution of the compound using potassium iodide, KI, and sodium thiosulfate, Na2 S2 O3. A 0.5 to 1.0 gram sample of the compound is weighed out and dissolved in 10 milliliters of chloroform. […] The calculations are: [formula] The value obtained is the percent by weight of the sample that is the desired thiocarbamylsulfenamide. The titration is run on the sample before and after aging. The change in purity of the compound indicates its decomposition upon storage.
(§2) This is important if the compounds are going to be used in disinfectant solutions, and stored and marked without a significant loss in activity against organisms. […] The compounds were aged in an air oven, while in closed bottles. The test methods used were previously described.

[3] = Storage stability test, melting point, appearance and odor before and after aging; type: physicochemical; conditions: for Melting point, after aging: air oven, closed bottles
Description: as §1
In addition to the titration test, other tests were run. The melting point of the compound was measured both before and after aging. Little or no change in melting point indicates good storage stability. Further, observations were made upon the appearance and odor of the compounds before and after aging.
as §2

[4] = test system: various infectious organisms; conditions: U.S. Pat. No. 2,692,862; cited from earlier work
Acute oral toxicity test = conditions: rat, in vivo, rats
Description: (§3) The thiocarbamylsulfenamide compounds were also evaluated as to their oral, dermal, and inhalation toxicity. The techniques employed are specified in Section 362.116 of the Regulations for the Enforcement of the Federal Insecticide, Fungicide, and Rodenticide Act, Interpretation 18 (Revised, Federal Register, April 4, 1969), or in the Federal Hazardous Substances Act. (Revised, Federal Register, September 17, 1964). Acute oral LD50, acute dermal LD50, and acute inhalation LC50 were determined; LD50 being the lethal dose for 50% of the test animals and LC50 being the lethal concentration for 50% of the test animals. Acute oral and acute inhalation tests were run using rats, while acute dermal testing was run using rabbits.
(§4) Two of the compounds evaluated for their activity against organisms (compounds A and G respectively in Example V) were tested for their toxicity following the procedure previously given in the specification.

[5] = Acute dermal toxicity test; type: in vivo, rabbits; conditions: rabbit, in vivo, topical or ocular; rabbits, dermal
Description: as §3, §4

rabbits = assay: Acute dermal toxicity test; type: in vivo; conditions: classification according to federal regulations
Description: as §3, §4

[6] = Acute inhalation toxicity test; type: in vivo, rats; conditions: rat, in vivo, inhaled or intranasal; rats, inhalation
Description: as §3, §4

rats = assay: Acute inhalation toxicity test; type: in vivo; conditions: classification according to federal regulations
Description: as §3, §4

[7] = before aging, sample for 80 °C, 16 hrs.
[8] = before aging, sample for 50 °C, 10 days

For `S=C(SN(C1CCCCC1)C1CCCCC1)N1CCOCC1` [E, N-oxydiethylenethiocarbamyl-N',N'-dicyclohexylsulfenamide], the “activity against organisms (in words)” value [1] was “almost no activity”.

For `CN(C)C(=S)SNc1ccccc1` [Compound H, N,N-dimethylthiocarbamyl-N'-phenylsulfenamide], the “activity against organisms (in words)” value [1] was “good activity”.

With `CCCCCCCCCCCCCCCCCCCCN(CCCCCCCCCCCCCCCCCCCC)C(=S)SN(C1CCCCC1)C1CCCCC1` [D, N,N-dieicosylthiocarbamyl-N',N'-dicyclohexylsulfenamide] the “activity against organisms (in words)” value [1] was “no activity”.

With `CCN(CC)C(=S)SN(C1CCCCC1)C1CCCCC1` [Compound B, N,N-diethylthiocarbamyl-N',N'-dicyclohexylsulfenamide] the “activity against organisms (in words)” value [1] was “good activity”.

For `CCCCN(CCCC)C(=S)SN(C1CCCCC1)C1CCCCC1` [C, N,N-dibutylthiocarbamyl-N',N'-dicyclohexylsulfenamide], the “activity against organisms (in words)” value [1] was “no activity”.

In the case of `CC(C)N(SC(=S)N(C)C)C(C)C` [K, N,N-dimethylthiocarbamyl-N',N'-diisopropylsulfenamide, reference compound], the “Percent Purity, after aging” value ([2]; after aging, 80 °C, 16 hrs.) is reported as 89%, the “Percent Purity, before aging” value [2, 7] is reported as 93% and the “Amine odor, after aging” value ([3]; 80 °C, 16 hrs.) is reported as “strong”. The “Melting point, after aging” value ([3]; 80 °C, 16 hrs.) was 53-54 °C, the “Amine odor, before aging” value ([3]; sample for 80 °C, 16 hrs.) was “mild” and the “Color, before aging” value ([3]; sample for 80 °C, 16 hrs.) was “white”. The “Melting point, before aging” value ([3]; sample for 80 °C, 16 hrs.) was 56-57 °C and the “known activity against organisms (in words)” value [4] was “known to have activity against organisms”.

For `CCN(CC)C(=S)SNc1ccccc1` [I, N,N-diethylthiocarbamyl-N'-phenylsulfenamide], the “activity against organisms (in words)” value [1] was “very little activity”.

With `S=C(SN1CCOCC1)N1CCOCC1` [Compound G, N-oxydiethylenethiocarbamyl-N'-oxydiethylenesulfenamide] the LD50 (Acute oral toxicity test) was 5100 mg/kg, the LD50 [5] was > 10000 mg/kg and the “toxicity by dermal absorption (in words)” value (rabbits) was “non-toxic”. For the same compound, the LC50 [6] was 164 µg/mL (≈ 660 µM), the “toxicity by inhalation (in words)” value (rats) was “non-toxic” and the “Percent Purity, before aging” value [2] was 98. The “Percent Purity, after aging” value ([2]; 16 h) was 98, the “Amine odor, after aging” value ([3]; 80 °C, 16 hrs.) was “slight” and the “Melting point, after aging” value ([3]; 80 °C, 16 hrs.) was 135-139 °C. The “Amine odor, before aging” value ([3]; sample for 80 °C, 16 hrs.) was “slight”, the “Color, before aging” value ([3]; sample for 80 °C, 16 hrs.) was “white” and the “Melting point, before aging” value ([3]; sample for 80 °C, 16 hrs.) was 136-139 °C. For the same compound, the “activity against organisms (in words)” value [1] was “good activity against organisms”.

For `CN(C)C(=S)SN(C1CCCCC1)C1CCCCC1` [Compound A, N,N-dimethylthiocarbamyl-N',N'-dicyclohexylsulfenamide], the LD50 (Acute oral toxicity test) was 1100 mg/kg, the LD50 [5] was > 10000 mg/kg and the “toxicity by dermal absorption (in words)” value (rabbits) was “non-toxic”. The LC50 [6] was 78 µg/mL (≈ 260 µM), the “toxicity by inhalation (in words)” value (rats) was “non-toxic” and the “Percent Purity, after aging” value ([2]; after aging, 50 °C, 10 days) was 99%. For the same compound, the “Percent Purity, after aging” value ([2]; after aging, 80 °C, 16 hrs.) was 97%, the “Percent Purity, before aging” value [2, 8] was 99% and the “Percent Purity, before aging” value [2, 7] was 100%. For the same compound, the “Amine odor, after aging” value ([3]; 50 °C, 10 days) was “slight”, the “Melting point, after aging” value ([3]; 50 °C, 10 days) was 85-87 °C and the “Amine odor, after aging” value ([3]; 80 °C, 16 hrs.) was “slight”. The “Color, after aging” value ([3]; 80 °C, 16 hrs.) was “white”, the “Melting point, after aging” value ([3]; 80 °C, 16 hrs.) was 83-85 °C and the “Amine odor, before aging” value ([3]; sample for 50 °C, 10 days) was “slight”. The “Color, before aging” value ([3]; sample for 50 °C, 10 days) was “white”, the “Melting point, before aging” value ([3]; sample for 50 °C, 10 days) was 85-87 °C and the “Amine odor, before aging” value ([3]; sample for 80 °C, 16 hrs.) was “slight”. The “Color, before aging” value ([3]; sample for 80 °C, 16 hrs.) was “white”, the “Melting point, before aging” value ([3]; sample for 80 °C, 16 hrs.) was 84-85 °C and the “activity against organisms (in words)” value [1] was “good activity against organisms”.

For `CN(C)SC(=S)N(C)C` [J, N,N-dimethylthiocarbamyl-N',N'-dimethylsulfenamide, reference compound], the “Percent Purity, after aging” value ([2]; after aging, 50 °C, 10 days) was 77%, the “Percent Purity, before aging” value [2, 8] was 96% and the “Amine odor, after aging” value ([3]; 50 °C, 10 days) was “strong”. For the same compound, the “Color, after aging” value ([3]; 50 °C, 10 days) was “yellow”, the “Melting point, after aging” value ([3]; 50 °C, 10 days) was 34-39 °C and the “Amine odor, before aging” value ([3]; sample for 50 °C, 10 days) was “slight”. The “Melting point, before aging” value ([3]; sample for 50 °C, 10 days) was 49-51 °C and the “known activity against organisms (in words)” value [4] was “known to have activity against organisms”.
